We go through 21 molecules from patent publication US8546579B2, “Bicycloheteroaryl compounds as P2X7 modulators and uses thereof” (Evotec (US) Inc., priority 2006, dated 2013).

In this test the target is T1, P2X7 receptor (Homo sapiens, UniProt Q99572).
T1 construct: host or cells: THP-1 cells differentiated with LPS and IFN-γ
T1 sequence (Q99572 1-595): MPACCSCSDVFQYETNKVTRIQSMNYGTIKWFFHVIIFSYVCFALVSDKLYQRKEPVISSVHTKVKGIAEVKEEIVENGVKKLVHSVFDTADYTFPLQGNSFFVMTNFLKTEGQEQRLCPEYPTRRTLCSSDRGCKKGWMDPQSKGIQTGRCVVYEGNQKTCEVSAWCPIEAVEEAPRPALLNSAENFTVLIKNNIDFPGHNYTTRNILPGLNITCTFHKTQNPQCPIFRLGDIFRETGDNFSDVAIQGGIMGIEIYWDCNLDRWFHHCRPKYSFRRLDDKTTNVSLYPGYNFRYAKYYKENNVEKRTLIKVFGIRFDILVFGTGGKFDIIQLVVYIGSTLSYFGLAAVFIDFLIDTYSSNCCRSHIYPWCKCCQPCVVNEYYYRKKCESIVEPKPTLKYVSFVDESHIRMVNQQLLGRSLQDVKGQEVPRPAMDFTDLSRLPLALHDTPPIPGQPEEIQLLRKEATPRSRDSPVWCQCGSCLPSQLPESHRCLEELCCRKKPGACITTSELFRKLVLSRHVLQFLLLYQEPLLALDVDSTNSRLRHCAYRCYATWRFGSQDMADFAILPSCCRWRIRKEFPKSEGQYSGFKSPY
Nature of the test: IL-1β release assay in differentiated THP-1 cells stimulated with BzATP (Example 9). The format is cell-based. Particulars: for inhibition at 0.3 µM: 0.3 μM compound, differentiated THP-1 cells, BzATP 250 uM, '+' class symbols, read-out: IL-1β % Inhib. @ 0.3 μM; for IC50: THP-1 cells, BzATP-stimulated IL-1β release, four parameter logistic fit. As to the method:
THP-1 cells (ATCC Cat # 285-IF-100) are plated in 96 well plates at a concentration of 200,000 cells per well and allowed to differentiate in RPMI-1640 media (ATCC Cat # 30-2001) containing 10% FBS, 100 IU/mL penicillin, 100 ug/mL streptomycin, 100 ng/mL LPS and 100 ng/mL IFN-γ for 16 hours. Following differentiation, the cells are treated for an additional 2 hours in RPMI-1640 media containing 100 IU/mL penicillin, 100 ug/mL streptomycin and fresh LPS at 100 ng/mL. The cells are then pretreated for 30 minutes with the compound of interest at the appropriate concentration in RPMI media containing 100 IU/mL penicillin, 100 ug/mL streptomycin. Following the pretreatment 2′,3′-O-(4-benzoylbenzoyl)-adenosine 5′-triphosphate (Sigma Aldrich Cat # B6396) is added to a final concentration of 250 uM and the cells are incubated for an additional 45 minutes. 30 uL of cell supernatant is then collected and IL-1β levels determined via ELISA (R&D systems Cat. # HSLB50) according to manufacturer's recommendations using the Tecan Safire plate reader. Background adjusted IL-1β levels of drug treated and non-treated cells are used to calculate the percent inhibition.
The compounds set forth in Table 1 were tested for activity in a cellular model as described herein. Specifically, cells were pretreated with differing amounts of the compound under test and released IL-1β determined as in Example 9, above. Measurements were made and IC50 values, presented in Table 2, below, were determined by fitting the data to a four parameter logistic equation using GraphPad Prism software (GraphPad Software, Inc). The equation may be expressed by the following formula: Y=Bottom+(Top−Bottom)/(1+10^((Log EC50−X)*HillSlope)) Where X is the logarithm of concentration, Y is the response and Y starts at Bottom and goes to Top with a sigmoid shape.

Molecules are shown by their SMILES. Some results are limits rather than exact numbers.

With `COc1ccc(CC(=O)Nc2cccc3c(=O)n(CCN(C)C)ccc23)cc1` [Compound 1001], the inhibition at 0.3 µM lay within 51 to 75% and the IC50 (commonly the point on the concentration scale where inhibition reaches its midpoint) turned out to be 240 nM.
For `Cc1ccc(CCC(=O)Nc2cccc3c(=O)n(CCN(C)C)ccc23)cc1` [Compound 1002], the inhibition at 0.3 µM is no less than 76% and half-maximal inhibition (IC50) was put at 72.3 nM.
For `CN(C)CCn1ccc2c(NC(=O)CCc3ccccc3)cccc2c1=O` [Compound 1003], the inhibition at 0.3 µM fell in the range of 0 to 25% and the IC50 was greater than 1000 nM.
For `CN(C)CCn1ccc2c(NC(=O)Cc3ccc(Cl)cc3)cccc2c1=O` [Compound 1004], in that order: no less than 76% and 108 nM.
For `Cc1ccc(CC(=O)Nc2cccc3c(=O)n(CCN(C)C)ccc23)cc1` [Compound 1005], in that order: no less than 76% and 39.6 nM.
Consider `CN(C)CCn1ccc2c(NC(=O)c3ccccc3)cccc2c1=O` [Compound 1006, N-[2-(2-Dimethylamino-ethyl)-1-oxo-1,2-dihydro-isoquinolin-5-yl]-benzamide], for which the inhibition at 0.3 µM fell in the range of 0 to 25% and the IC50 is 99.2 nM.
`Cc1ccccc1C(=O)Nc1cccc2c(=O)n(CCN(C)C)ccc12` [Compound 1007]: the inhibition at 0.3 µM was in the range of 0 to 25% and the IC50 is greater than 1000 nM.
The molecule `CN(C)CCn1ccc2c(NC(=O)c3ccc(S(C)(=O)=O)cc3)cccc2c1=O` [Compound 1008] registered an IC50 greater than 1000 nM.
On to `CN(C)CCn1ccc2c(NC(=O)CCc3ccc(S(C)(=O)=O)cc3)cccc2c1=O` [Compound 1009], for which the inhibition at 0.3 µM fell in the range of 0 to 25% and the IC50 was greater than 1000 nM.
In the case of `CN(C)CCn1ccc2c(NC(=O)CC3CCN(C(=O)OC(C)(C)C)CC3)cccc2c1=O` [Compound 1010], the inhibition at 0.3 µM fell in the range of 0 to 25% and the IC50 is greater than 1000 nM.
Taken in the same sequence, the figures for `CC(=O)OCCn1ccc2c(NC(=O)CC3CCN(C(=O)OC(C)(C)C)CC3)cccc2c1=O` [Compound 1011] were 0 to 25% and greater than 1000 nM.
For `CC(=O)OCCn1ccc2c(NC(=O)C3CCN(C(=O)OC(C)(C)C)CC3)cccc2c1=O` [Compound 1012], in that order: 26 to 50% and 422 nM.
For `O=C(CC1CCCCCC1)Nc1cccc2c(=O)n(Cc3ccc4c(c3)OCCO4)ccc12` [Compound 1013, 2-Cycloheptyl-N-[2-(2,3-dihydro-benzo[1,4]dioxin-6-ylmethyl)-1-oxo-1,2-dihydro-isoquinolin-5-yl]-acetamide], the inhibition at 0.3 µM is no less than 76% and half-maximal inhibition (IC50) required 0.355 nM.
As to `CC(=O)OCCn1ccc2c(NC(=O)c3ccc(C(F)(F)F)cc3C(F)(F)F)cccc2c1=O` [Compound 1014], the inhibition at 0.3 µM lay in the range of 26 to 50% and it took 326 nM to reach half-maximal inhibition (IC50).
As for `CC(=O)OCCn1ccc2c(NC(=O)CC3(O)CCCCCC3)cccc2c1=O` [Compound 1015], the inhibition at 0.3 µM is no less than 76% and half-maximal inhibition (IC50) required 171 nM.
For `CC(=O)OCCn1ccc2c(NC(=O)Cc3ccc(C(F)(F)F)cc3)cccc2c1=O` [Compound 1016], in that order: no less than 76% and 338 nM.
Turning to `CN(C)CCn1ccc2c(NC(=O)C(Cl)c3ccccc3)cccc2c1=O` (centres unmarked) [Compound 1017], the inhibition at 0.3 µM is 26 to 50% and the IC50 is 367 nM.
For `CN(C)CCn1ccc2c(NC(=O)Cc3ccc(F)cc3)cccc2c1=O` [Compound 1018], in that order: 0 to 25% and greater than 1000 nM.
As for `CN(C)CCn1ccc2c(NC(=O)Cc3ccccc3)cccc2c1=O` [Compound 1019], the inhibition at 0.3 µM lay within 0 to 25% and the IC50 is greater than 1000 nM.
In the case of `CCC(C(=O)Nc1cccc2c(=O)n(CCN(C)C)ccc12)c1ccccc1` (centres unmarked) [Compound 1020], the inhibition at 0.3 µM lay in the range of 0 to 25% and the IC50 was greater than 1000 nM.
Take `COc1cccc(CC(=O)Nc2cccc3c(=O)n(CCN(C)C)ccc23)c1` [Compound 1021]: the inhibition at 0.3 µM was no less than 76% and the IC50 was greater than 1000 nM.
